Literature values in PubChem BioAssay AID1259409 (Chemical Carcinogenesis Research Information System (CCRIS), 2018).

Test system: rodent chemically induced tumor inhibition, incidence and multiplicity
Assay: CCRIS tumor inhibitor studies

CC1(C)O[C@@H]2C[C@H]3[C@@H]4CCC5=CC(=O)C=C[C@]5(C)[C@@]4(F)[C@@H](O)C[C@]3(C)[C@]2(C(=O)CO)O1
tumour outcome (control, treated, inhibition, significance) (Carcinogen: UVB IRRADIATION, Dose [Inhibitor]: 14.4 NMOL IN 0.1 ML ACETONE 5/WK FOR 4 WK IMMEDIATELY AFTER EACH UVB EXPOSURE FOLLOWED BY 48 WK OBSERVATION PERIOD (STUD, Route [Inhibitor]: DERMAL, Species: MOUSE, Strain/Sex: SKH/HRL/FEMALE, Target Tissue: Type of Lesion: SKIN: TUMOR, Dose [Carcinogen]: 0.3 KJ/SQM ON FIRST DAY, 0.6 KJ/SQM ON SECOND DAY AND ALL SUBSEQUENT DAYS 0.9 KJ/SQM ADMINISTERED 5 D/WK FOR 4 WK, Promoter: NONE USED): 8/27 (30%), 4/27 (15%), 50%, not significant

CC(=O)[C@H]1CC[C@H]2[C@@H]3CCC4=CC(=O)CC[C@]4(C)[C@H]3CC[C@]12C
tumour outcome (control, treated, inhibition, significance) (Carcinogen: 7,12-DIMETHYLBENZ[A]ANTHRACENE, 57-97-6, Dose [Inhibitor]: 0, 1 MG/100 G BW 3/WK FOR 150 D BEGINNING POST CARCINOGEN TREATMENT (STUDY DURATION: 150 D), Route [Inhibitor]: SUBCUTANEOUS, Species: RAT, Strain/Sex: WISTAR/FEMALE, Target Tissue: Type of Lesion: MAMMARY GLAND: ADENOCARCINOMA, Dose [Carcinogen]: 4 MG IN 0.1 ML OF SESAME OIL INJECTED ONCE INTO THE EXPOSED MAMMARY TISSUE OF HYPERPROLACTINEMIC RATS ON DAY 73 OF AGE, Promoter: NONE USED): 8/11 (73%), 5/11 (45%), 38%, p<0.05
tumour outcome (control, treated, inhibition, significance) (Carcinogen: N-METHYL-N-NITROSOUREA, 684-93-5, Dose [Inhibitor]: 0, 2560 MG/KG IN DIET FOR THE DURATION OF STUDY BEGINNING 7 D PRIOR TO CARCINOGEN DOSE (STUDY DURATION: 187 D), Route [Inhibitor]: ORAL, Species: RAT, Strain/Sex: SPRAGUE-DAWLEY/FEMALE, Target Tissue: Type of Lesion: MAMMARY GLAND: TUMOR, Dose [Carcinogen]: 50 MG/KG BW ONCE, Promoter: NONE USED): 100%, 95%, 5%, not significant

CC(C)(C)c1cc(O)c(C(C)(C)C)cc1O
tumour outcome (control, treated, inhibition, significance) (Carcinogen: BENZO[A]PYRENE, 50-32-8, Dose [Inhibitor]: 0.03 MMOL/G OF DIET DAILY STARTING 8 D BEFORE AND CONTINUING THROUGH 3 D AFTER CARCINOGEN TREATMENT FOLLOWED BY OBSERVAT, Route [Inhibitor]: ORAL, Species: MOUSE, Strain/Sex: ICR/FEMALE, Target Tissue: Type of Lesion: FORESTOMACH: NEOPLASM, Dose [Carcinogen]: 1 MG IN 0.2 ML CORN OIL 2/WK FOR 4 WK, Promoter: NONE USED): 90%, 95%, -6%, not significant

C[C@]12CCC(=O)C=C1CC[C@@H]1[C@@H]2[C@@H](O)C[C@@]2(C)[C@H]1CC[C@]2(O)C(=O)CO
tumour outcome (control, treated, inhibition, significance) (Carcinogen: METHYLAZOXYMETHANOL ACETATE, 592-62-1, Dose [Inhibitor]: 7.5 MG/KG BW DAILY FOR 3 WK STARTING 21 WK POST CARCINOGEN TREATMENT (STUDY DURATION: 30 WK), Route [Inhibitor]: INTRARECTAL, Species: RAT, Strain/Sex: DONRYU/MALE, Target Tissue: Type of Lesion: LARGE INTESTINE: ADENOCARCINOMA, Dose [Carcinogen]: 20 MG/KG BW 1/WK FOR 6 WK, Promoter: NONE USED): 19/23 (83%), 16/29 (55%), 34%, p<0.05
tumour outcome (control, treated, inhibition, significance) (Carcinogen: METHYLAZOXYMETHANOL ACETATE, 592-62-1, Dose [Inhibitor]: 7.5 MG/KG BW DAILY FOR 3 WK STARTING 21 WK POST CARCINOGEN TREATMENT (STUDY DURATION: 30 WK), Route [Inhibitor]: INTRARECTAL, Species: RAT, Strain/Sex: DONRYU/MALE, Target Tissue: Type of Lesion: SMALL INTESTINE: ADENOCARCINOMA, Dose [Carcinogen]: 20 MG/KG BW 1/WK FOR 6 WK, Promoter: NONE USED): 10/23 (43%), 4/29 (14%), 67%, p<0.05
tumour outcome (control, treated, inhibition, significance) (Dose [Inhibitor]: 0, 1.5 MG 2/WK FOR 10 WK (STUDY DURATION: 65 WK), Route [Inhibitor]: INTRAMUSCULAR, Species: RAT, Strain/Sex: F344/MALE, Target Tissue: Type of Lesion: LIVER: HEPATOCELLULAR CARCINOMA, Dose [Carcinogen]: 100 UG 2/WK FOR 10 WK, Promoter: NONE USED): 12/13 (92%), 15/24 (63%), 32%, p<0.05

CC(=O)Oc1c(C)c(C)c2c(c1C)CC[C@@](C)(CCC[C@H](C)CCC[C@H](C)CCCC(C)C)O2
tumour outcome (control, treated, inhibition, significance) (Carcinogen: 7,12-DIMETHYLBENZ[A]ANTHRACENE, 57-97-6, Dose [Inhibitor]: 0, 0.2% IN DIET BEGINNING 1 WK PRIOR TO CARCINOGEN DOSE AND CONTINUING FOR 12 WK (STUDY DURATION: 13 WK), Route [Inhibitor]: ORAL, Species: RAT, Strain/Sex: SPRAGUE-DAWLEY/FEMALE, Target Tissue: Type of Lesion: MAMMARY GLAND: TUMORS, Dose [Carcinogen]: 10 MG IN 1 ML CORN OIL ONCE, Promoter: NONE USED): 100%, 80%, 20%, p<0.05
tumour outcome (control, treated, inhibition, significance) (Carcinogen: 7,12-DIMETHYLBENZ[A]ANTHRACENE, 57-97-6, Dose [Inhibitor]: 0, 10 UMOL 1/WK 5 MIN PRIOR TO EACH PROMOTER DOSE BEGINNING 2 WK POST CARCINOGEN DOSE AND CONTINUING FOR 29 WK (STUDY DU, Route [Inhibitor]: DERMAL, Species: MOUSE, Strain/Sex: SENCAR/FEMALE, Target Tissue: Type of Lesion: SKIN: PAPILLOMA, Dose [Carcinogen]: 25 NMOL ONCE, Promoter: CHRYSAROBIN, 491-58-7): 100%, 93%, 7%, not significant
tumour outcome (control, treated, inhibition, significance) (Carcinogen: 7,12-DIMETHYLBENZ[A]ANTHRACENE, 57-97-6, Dose [Inhibitor]: 0, 40 UMOL 1/WK 5 MIN PRIOR TO EACH PROMOTER DOSE BEGINNING 2 WK PRIOR TO CARCINOGEN DOSE AND CONTINUING FOR 29 WK (STUD, Route [Inhibitor]: DERMAL, Species: MOUSE, Strain/Sex: SENCAR/FEMALE, Target Tissue: Type of Lesion: SKIN: PAPILLOMA, Dose [Carcinogen]: 25 NMOL ONCE, Promoter: CHRYSAROBIN, 491-58-7): 100%, 68%, 32%, not calculated
tumour outcome (control, treated, inhibition, significance) (Carcinogen: ETHYLNITROSOUREA, 759-73-9, Dose [Inhibitor]: 0, 600 MG/KG IN 1:10 (VOLUME: VOLUME) SUNFLOWER OIL IN DIET 5 D/WK FOR 18 MO (STUDY DURATION: 18 MO), Route [Inhibitor]: ORAL, Species: RAT, Strain/Sex: ALBINO/MALE,FEMALE, Target Tissue: Type of Lesion: BRAIN: GLIOMA OR ASTROCYTOMA, Dose [Carcinogen]: 7.5 MG/KG IN SALINE BY INTRAVENOUS INJECTION ONCE 21 D AFTER CONCEPTION): 22/54 (41%), 19/50 (38%), 7%, not calculated
tumour outcome (control, treated, inhibition, significance) (Carcinogen: ETHYLNITROSOUREA, 759-73-9, Dose [Inhibitor]: 0, 600 MG/KG IN 1:10 (VOLUME: VOLUME) SUNFLOWER OIL IN DIET 5 D/WK FOR 18 MO (STUDY DURATION: 18 MO), Route [Inhibitor]: ORAL, Species: RAT, Strain/Sex: ALBINO/MALE,FEMALE, Target Tissue: Type of Lesion: NERVOUS SYSTEM: SCHWANNOMA, Dose [Carcinogen]: 7.5 MG/KG IN SALINE BY INTRAVENOUS INJECTION ONCE 21 D AFTER CONCEPTION): 7/54 (13%), 5/50 (10%) 23%, not calculated
tumour outcome (control, treated, inhibition, significance) (Carcinogen: ETHYLNITROSOUREA, 759-73-9, Dose [Inhibitor]: 0, 600 MG/KG IN 1:10 (VOLUME: VOLUME) SUNFLOWER OIL IN DIET 5 D/WK FOR 18 MO (STUDY DURATION: 18 MO), Route [Inhibitor]: ORAL, Species: RAT, Strain/Sex: ALBINO/MALE,FEMALE, Target Tissue: Type of Lesion: SPINAL CORD: TUMOR, Dose [Carcinogen]: 7.5 MG/KG IN SALINE BY INTRAVENOUS INJECTION ONCE 21 D AFTER CONCEPTION): 3/54 (6%), 6/50 (12%), -100%, not calculated

CC1=C(/C=C/C(C)=C/C=C/C(C)=C/C=C/C=C(C)/C=C/C=C(\C)C=O)C(C)(C)CCC1
tumour outcome (control, treated, inhibition, significance) (Carcinogen: BENZO[A]PYRENE, 50-32-8, Dose [Inhibitor]: 0, 4.7 MICROMOLAR/D IN 0.1 ML PEANUT OIL BEGINNING 2 WK PRIOR TO CARCINOGEN TREATMENT AND CONTINUING TO 2 WK POST CARCIN, Route [Inhibitor]: GAVAGE, Species: MOUSE, Strain/Sex: SWISS/FEMALE, Target Tissue: Type of Lesion: FORESTOMACH: TUMOR, Dose [Carcinogen]: 1 MG 2/WK IN 0.1 ML PEANUT OIL FOR 4 WK, Promoter: NONE USED): 20/20 (100%), 5/20 (25%), 75%, p<0.001

C[C@]12CC[C@]3(C1)[C@H](CC2=O)C[C@@H](OC(=O)c1ccccc1)[C@H]1[C@](C)(C(=O)O)CCC[C@@]13C
tumour outcome (control, treated, inhibition, significance) (Carcinogen: 7,12-DIMETHYLBENZ[A]ANTHRACENE, 57-97-6, Dose [Inhibitor]: 0, 162 NMOL 2/WK APPLIED SIMULTANEOUSLY WITH EACH PROMOTER DOSE FOR 18 WK (STUDY DURATION: 18 WK), Route [Inhibitor]: DERMAL, Species: MOUSE, Strain/Sex: ICR/FEMALE, Target Tissue: Type of Lesion: SKIN: TUMOR, Dose [Carcinogen]: 100 UG IN 100 µL ACETONE ONCE, Promoter: 12-O-TETRADECANOYLPHORBOL-13-ACETATE, 16561-29-8): 90%, 50%, 44%, not significant
